This passage reports IC50 results from patent US8617563B2, “Antichlamydial agents” (Duke University, priority 2011, dated 2013).

Where no end group is shown, it is not given here.

The target in the assay is CPAF (Chlamydia trachomatis serovar D, UniProt O84866). Description: FRET-based CPAF inhibition assay with model substrate SEQ ID NO:10. Details: 6xHis; made in house; host or cells: E. coli BL21 (DE3), plasmid pET30b-CPAF. Type of assay: biochemical, C. trachomatis. On the procedure: FRET-based assays comprised an Abz-tagged model CPAF substrate with an additional C-terminal 3-nitrotyrosine quencher:
The 3-nitrotyrosine moiety quenches Abz fluorescence until substrate cleavage occurs. FRET-based assays were performed in optical plates in a final volume of 100 μL containing 150 mM NaCl, 50 mM Tris pH 7.50, purified CPAF (62.5 nM), varying concentrations of model CPAF substrate (0.5 mM), and varying concentrations of each candidate compound (0-240 μM). IC50 values were determined by pre-incubating CPAF with varying concentrations of candidate compound for 5 min at room temperature prior to initiation of the reaction via the addition of model CPAF substrate. Reactions were initiated and read continuously at 420 nm for 10 minutes using a fluorescence microplate reader. The percentage of substrate converted was calculated using initial velocity over the first 90 seconds and converting RFU to concentration based on a standard curve with Abz followed by analysis in Graffit 6.0 using the equation of Example 8.

Chain of CPAF (O84866 276-601): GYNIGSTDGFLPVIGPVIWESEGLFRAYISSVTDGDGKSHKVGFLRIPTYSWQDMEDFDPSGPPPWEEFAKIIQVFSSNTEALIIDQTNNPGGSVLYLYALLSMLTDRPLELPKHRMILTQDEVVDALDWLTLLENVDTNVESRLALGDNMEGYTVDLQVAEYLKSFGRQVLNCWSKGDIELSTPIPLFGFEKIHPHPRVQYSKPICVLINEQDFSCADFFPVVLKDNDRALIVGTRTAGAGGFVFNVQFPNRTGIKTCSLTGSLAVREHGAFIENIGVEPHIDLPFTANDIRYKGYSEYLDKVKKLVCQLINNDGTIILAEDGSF
Chain of CPAF (O84866 1-234, added parts left off): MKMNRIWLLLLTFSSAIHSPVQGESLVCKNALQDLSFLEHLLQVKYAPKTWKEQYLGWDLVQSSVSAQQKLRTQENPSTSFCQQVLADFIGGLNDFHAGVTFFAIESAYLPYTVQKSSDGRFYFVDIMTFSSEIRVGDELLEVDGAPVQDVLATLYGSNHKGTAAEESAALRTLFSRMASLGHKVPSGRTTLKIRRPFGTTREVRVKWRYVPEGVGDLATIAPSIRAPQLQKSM

For orientation: IC50 means the point on the concentration scale where inhibition reaches its midpoint. On to “SLFYSPMVPHFWAELRNHYATSGLKRRRRRRRRR-NH2 [SEQ ID NO:7]”, for which the IC50 was found to be 30 ± 6 nM.
